Assay results from patent US11472846B2, “Compositions and methods for treating diseases by inhibiting exosome release” (priority 2016, dated 2022).

Key:
Format in all cases: cell-based, human
[1] = system: MCF-7 breast cancer cells; test: Exosome release by acetylcholinesterase (AchE) assay, MCF-7; conditions: MCF-7 cells, five-day treatment
Procedure: (§1) 1-6. Exosome isolation and purification. Exosomes were isolated from breast cancer cells by differential centrifugation as previously described (Ali SA. et al., 2010). Untreated tumor cells were used as a control. Briefly, the above treated and untreated cell culture supernatants were centrifuged at 400×g for 10 minutes. The supernatants were transferred to a clear tube and centrifuged at 10,000×g for 30 minutes. The supernatants from the second spin were ultracentrifuged at 200,000×g for 2 hours to pellet exosomes. Finally, the exosome pellets were re-suspended with PBS and stored at 4° C. until used for analysis.
(§2) 1-7. Exosome characterization by acetylcholinesterase (AchE) assay. Purified exosomes were quantitated by measurement of AchE as described (Ellman et al., 1961). Briefly, a 100 mM dithibionitrobenzoic (DTNB) solution was prepared for use as a stock color indicator, and a 28.9 mg/mL acetylthiocholine iodide in PBS solution was prepared as a stock substrate. The stock substrate stock can be stored at −20° C. up to one month, while the color indicator can be stored at 4° C. for two weeks. A working solution was prepared by mixing 10 mL of PBS with 200 μL of Substrate and 500 μl of DTNB. 50 μL of each exosome sample was transferred to 96 well microtitre plates, and a standard curve was prepared using AchE from 0.98 mU/mL to 2000 mU/mL. After 50 μL of standards were added into separate wells, 200 μL of the working solution was added to all wells. After 20 min incubation, AchE activity was measured at 450 nm using a SpectroMax M5 fluorimeter.
(§3) 7-5. Exosome isolation and purification. Exosomes were isolated from breast cancer cells and leukemia cells using the ExoQuick-TC Exosome Precipitation Kit (System Biosciencences [SBI], Mountain View Calif.) or the miRCURY Exosome Isolation Kit (EXIQON, Woburn, Mass.) according to the manufacturer's instructions. Untreated tumor cells were used as a control. Briefly, treated and untreated cell culture supernatants (10 mL) were centrifuged at 3000×g for 15 minutes. The resulting supernatants were transferred to a clear tube, 2 mL of ExoQuick-TC buffer was added, mixed and incubated overnight at 4° C. Following the incubation, the sample contents were centrifuged at 1500×g for 30 minutes, the supernatants were aspirated off, the pellets were centrifuged at 1500×g for 5 minutes and any further traces of supernatant were removed (SBI). Alternatively, treated and untreated cell culture supernatants were centrifuged at 10,000×g for 5 minutes to remove cell debris, supernatants (10 ml) were transferred into new tubes, and 4 mL of precipitation buffer (EXIQON) was added, and the contents were mixed and incubated at 4° C. overnight. Following the incubation, the sample contents were centrifuged at 10,000×g for 30 minutes (EXIQON). Exosome-containing pellets were re-suspended in PBS and stored at 4° C. or −80° C.
(§4) 7-6. Exosome characterization by acetylcholinesterase (AchE) assay. Purified exosomes were quantitated by measurement of AchE as previously described (Huang et al., Oncotarget, 2017. 8(7): pp. 11302-11315). Briefly, 100 mM dithibionitrobenzoic (DTNB) was prepared as a stock color indicator, and prepared a stock substrate containing 28.9 mg/mL of acetylthiocholine iodide in PBS. Substrate stock can be stored at −20° C. up to one month; the stock color indicator can be stored at 4° C. for two weeks. A working solution was prepared by mixing 10 mL of PBS with 200 μL of substrate and 500 μl of DTNB. 50 μL of each exosome sample was transferred to a 96 well microtitre plate, and a standard curve for AchE concentrations was prepared using AchE from 0.98 mU/mL to 2000 mU/mL. After 50 μL of standards were added into separate wells, 200 μL of the working solution was added to each well. After a 20 min incubation, AchE activity was measured at 450 nm using a SpectroMax M5 fluorometer (FIG. 11).

[2] = system: MDA-MB-231 breast cancer cells; test: Exosome release by acetylcholinesterase (AchE) assay, MDA-MB-231; conditions: MDA-MB-231 cells, five-day treatment
Procedure: as §1, §2, §3, §4

[3] = system: exosomes from MCF-7 cells; test: Western blot of exosomal proteins (Alix, vimentin, mortalin), MCF-7; conditions: 48 hr treatment, vs negative controls
Procedure: (§5) 7-7. Protein analysis by Western blotting. Exosomes were isolated from cell culture supernatants as described above. Protein concentrations were determined by measuring absorbance at 280 nm (Nanodrop 2000). Cultured cells were treated with PEG-SMR-Clu, SMR-CPP peptides, MKT-077, Omeprazole or DMA at 37° C. for 48 hr. To evaluate mortalin, vimentin and exosome expression, Western blot analysis was performed using anti-mortalin (Grp-75), anti-Vimentin and anti-Alix antibodies, respectively (FIG. 12).
(§6) Exosomes and cell lysates were prepared by incubating 5-10 min at 95° C. in sample buffer. The lysates were subjected to SDS-PAGE under reducing conditions (150 mM DTT) in 4-20% Criterion™ TGX™ precast gels (BioRad, Hercules, Calif.) and then transferred onto a nitrocellulose membrane (Bio-Rad, Hercules, Calif.). Nitrocellulose membranes were blocked with 5% skim milk (MedSupply, Atlanta, Ga.) in TBS containing 0.05% Tween 20 (TBST) for 1 h at room temperature. The membranes were treated with anti-mortalin (Grp-75) mAb or anti-α-tubulin mAb for cell lysates (FIG. 15, Panels A and B) or with anti-Alix and anti-vimentin or anti-mortalin for exosomes (FIG. 12), followed by peroxidase-conjugated goat anti-mouse IgG. Bands were developed with an ECL chemiluminescent substrate (Santa Cruz Biotechnology, Santa Cruz, Calif.) and exposed to an ImageQuant LAS 4000 imaging system (GE Healthcare, Piscataway, N.J. 08854).

MDA-MB-231 exosomes = test: Western blot of exosomal proteins (Alix, vimentin, mortalin), MDA-MB-231; conditions: MDA-MB-231 cells, 48 hr treatment
Procedure: as §5, §6

K562 exosomes = test: Western blot of exosomal proteins (Alix, vimentin, mortalin), K562; conditions: K562 cells, 48 hr treatment
Procedure: as §5, §6

MDA-MB-231 cells = test: TUNEL apoptosis assay, MDA-MB-231; conditions: 48 hours, MKT-077 925 nM/mL, DMA 300 μM/mL, Omeprazole 200 μM/mL, paclitaxel 1.6 uM/mL, cisplatin 2 mg/mL
Procedure: (§7) 7-8. Apoptosis assay by flow cytometry. For assessment of apoptosis, MCF-7 and MDA-MB-231 breast cancer cells and were seeded into 6-well plates at 4×10^5 cells per well and treated for 48 hours with 925 nM/mL of MKT-077 on MDA-MB-231 cells, 500 nM/mL of MKT-077 on MCF-7 cells, 337.5 nM/mL of MKT-077 on K562 cells, 300 μM/mL of DMA, 200 μM/mL of Omeprazole, 1.6 uM/mL of paclitaxel, 2 mg/mL of cisplatin, or combined treatment with either paclitaxel or cisplatin in combination with each of the three mortalin inhibitors. Apoptosis was determined using the TUNEL detection kit (Nexcelom, MA) and GUAVA easyCyte HT (EMD Millipore Corporation, Temecula, Calif.) system for fluorometric detection. (FIG. 13).

MCF-7 cells = test: TUNEL apoptosis assay, MCF-7; conditions: 48 hours, MKT-077 500 nM/mL, DMA 300 μM/mL, Omeprazole 200 μM/mL, paclitaxel 1.6 uM/mL, cisplatin 2 mg/mL
Procedure: as §7

K562 cells = test: TUNEL apoptosis assay, K562; conditions: 48 hours, MKT-077 337.5 nM/mL, DMA 300 μM/mL, Omeprazole 200 μM/mL, paclitaxel 1.6 uM/mL, cisplatin 2 mg/mL
Procedure: as §7

[4] = system: MCF-7 breast cancer cells; test: InnoCyte cell migration assay, MCF-7; conditions: MCF-7 cells, 1120 nM SMR peptide or 3 μM Latrunculin A, 24 hours
Procedure: (§8) 7-12. Cell migration assay. Cell migration assays were performed using the InnoCyte Cell Migration Assay (EMD Millipore Corporation, Temecula, Calif.) according to the manufacturer's instructions. Briefly, cell migration was monitored in the presence and absence of SMRwt peptides or latrunculin A (positive control inhibitor), which were added to the lower chamber of a 96-well plate. MCF-7 and MDA-MB-231 breast cancer cells and non-tumorigenic MCF-10A breast cells were harvested by 0.25% Trypsin-EDTA (Life Technologies) release and resuspended at 250,000500,000 cells/ml in serum-free RPMI 1640 media. A total of 25,000-50,000 cells was added to the upper chamber and allowed to migrate through an 8-μm pore-size membrane for 24 hours at 37° C. in a 5% CO2 atmosphere. Cells that migrated through the membrane were detached and labeled with Calcein-AM fluorescent dye. Fluorescence was measured using a Fluorescence Plate Reader (Molecular Devices, Sunnyvale, Calif.) with an excitation wavelength of 485 nm and an emission wavelength of 515 nm. The experiment was repeated in triplicate, and each conditioned experiment was performed in quadruplicate.

[5] = system: MDA-MB-231 breast cancer cells; test: InnoCyte cell migration assay, MDA-MB-231; conditions: MDA-MB-231 cells, 280 nM SMR peptide or 3 μM Latrunculin A, 24 hours
Procedure: as §8

Structure (SMILES)	average AChE concentration days 1 to 5 [1]	average AChE concentration day 1 to 5 [2]	Alix expression in exosomes [3]	Mortalin expression in exosomes [3]	Vimentin expression in exosomes [3]	Vimentin expression in exosomes (MDA-MB-231 exosomes)	Alix expression in exosomes (K562 exosomes)	Mortalin expression in exosomes (K562 exosomes)	Vimentin expression in exosomes (K562 exosomes)	apoptosis (TUNEL) (MDA-MB-231 cells)	apoptosis (TUNEL) (MCF-7 cells)	apoptosis (TUNEL) (K562 cells)	reduced migration by [4]	reduced migration by [5]
CN(C)c1nc(N)c(C(=O)NC(=N)N)nc1Cl [DMA, 5-(N,N-Dimethyl)amiloride]	26 mU/mL	37 mU/mL	not accompanied by significant reductions	no significant changes	significantly decreased	significantly decreased	significantly decreased	significantly decreased	significantly	30.43%	11.83%	15.2%		
C/C1=C/C(=O)O[C@@H]2C[C@@H](CC[C@H](C)/C=C\C=C\CC1)O[C@@](O)([C@@H]1CSC(=O)N1)C2 [latrunculin A, reference compound]													53.05%	50.39%
